This is an account of results in PMC5537347, “A short D-enantiomeric antimicrobial peptide with potent immunomodulatory and antibiofilm activity against multidrug-resistant Pseudomonas aeruginosa and Acinetobacter baumannii” (Scientific Reports, 2017).

Read-outs that look alike come from different tables or passages of the source.

The test system of assay [1] is P. aeruginosa and A. baumannii isolates. An excerpt: (§1) The broth microdilution technique was utilized to assess the MIC of designed peptides according to the guidelines of the Clinical and Laboratory Standards Institute (CLSI)[37].
Assay [2] relates to colistin-resistant P. aeruginosa isolated from cystic fibrosis patients.
Excerpt: as §1

A further assay relates to P. aeruginosa PAO1. The experiment in a line: C. elegans infection model (bacterial burden and survival). It is filed as in vivo, Caenorhabditis elegans. As to conditions: 8 × MIC. As to the method: (§2) (A) Evaluation of toxicity of peptides in Caenorhabditis elegans. C. elegans strain glp-4;sek 1 was grown for four days in the presence of peptides at different concentrations. Worms were monitored daily and the live worms were counted. Results are expressed as a Kaplan-Meier survival curve. (B) Evaluation of antimicrobial activity of peptides to reduce the bacterial CFU inside infected Caenorhabditis elegans. […] After treatment, worms were lysed and bacteria were counted. […] Results are expressed as means from three biological replicates ± standard deviation. (C) Efficacy of peptides in a Caenorhabditis elegans model of bacterial infection. […] Worms were monitored daily and the live worms were counted. Results are expressed as a Kaplan-Meier survival curve. C. elegans receiving no treatment served as a negative control.
(§3) Infection and treatment of C. elegans was done, as described previously, with the following modifications, [53], [54]. […] After infection, worms were collected and washed with PBS three times. Worms (~30 per sample) were transferred either to microcentrifuge tubes (for survival assessment) or 96-well plates (for bacterial CFU determination). […] Untreated worms served as a negative control. To assess the survival of infected C. elegans, worms were assessed for viability (live worms are sinusoidal with movement, whereas dead worms are rigid rods). In order to assess the bacterial load in worms, worms were first washed three times with PBS. They were subsequently lysed by addition of 200 mg of 1.0-mm silicon carbide particles (Biospec Products, Bartlesville, OK) to each tube and vortexing for one minute. Bacteria were plated onto TSA plates containing 100 µg/ml ampicillin to permit the selective growth of P. aeruginosa and A. baumannii over Escherichia coli OP50.

In assay [3] the test system is A. baumannii ATCC BAA-1605. The assay is described as above. It is filed as in vivo, Caenorhabditis elegans. As to conditions: 8 × MIC. As to the method: as §2, §3
For assay [4], the system named is colistin-resistant P. aeruginosa 1109. The description is as above. The assay is classed as in vivo, Caenorhabditis elegans. The method, then:
as §2, §3

For orientation: MIC50 means the lowest concentration that inhibits either 50% of growth or 50% of the strains tested, depending on the study. A higher MIC50 goes with weaker potency. The MIC90 is the lowest concentration that inhibits either 90% of growth or 90% of the strains tested, depending on the study. A lower MIC90 goes with higher susceptibility. The term MIC denotes the lowest concentration that inhibits growth of the organism. In assay [1] (MIC that inhibited growth of 50% of all isolates (Table 2)), Colistin [reference compound] came in with an MIC50 of 0.25 µM. In assay [1] (MIC that inhibited growth of 90% of all isolates (Table 2)), this substance showed an MIC90 of 0.5 µM. Also, the minimal inhibitory concentration (MIC) was found to be 32 µM in assay [2] (strain 1125), 64 µM in assay [2] (strain 1131), 32 µM in assay [2] (strain 1133) and 64 µM in assay [2] (strain 1603). The “reduction of bacterial burden (CFU) in infected worms” value with P. aeruginosa PAO1 was 89%; in assay [3], 96%; in assay [4] (in vivo), “unable to significantly decrease bacterial burden”. The “protection of infected worms (survival)” value is “nearly complete protection” in the assay on P. aeruginosa PAO1 (24 and 36 hours); “failed to protect worms from death” in assay [4] (D-RR4 8 × MIC, colistin 1 × MIC, after 24 hours). Further, the worms remaining alive entry is reported as “remained alive” in assay [3] (36 hours) and 80–85% in assay [3] (after 72 hours).
